Counter-ions that a name gives are not always drawn.
Experiments:
Format in all cases: in vivo
male ICR mouse [1] = assay: Elevated plus maze (EPM) test in mouse; details: po, p.o, 1 hour after dosing, 5 minutes observation, read-out: Elevated Plus Maze Change index in Open-Arm Time
From the text: Elevated plus maze (EPM) is one of representative models that examine an anti-anxiety activity of a test material. Equipment used for an EPM test has a crossroad shape raised in a high position off the ground, and is configured in such a cliff shape that both sides of one road are protected with high walls and the other road is free from the wall. Among them, the road in the cliff shape is referred to as an ‘open arm,’ and the road protected by the walls is referred to as a ‘close arm.’ In this case, a level of the anxiety of a mouse may be measured by determining in which arm the mouse stays longer. In general, the mouse stays longer in the close arm than the open arm, but a mouse treated with a medicine showing an anti-anxiety effect stays relatively longer in the open arm. A test material dissolved in a suitable vehicle was orally administered to a male ICR mouse weighing 20 to 25 g at an amount of 10 mg/kg. After 1 hour of the oral administration, the mouse was put on the center of an EPM equipment to measure how long the mouse stays in the open arm within a time range of 5 minutes. The anti-anxiety effect of the test material is represented by the ‘Change index in Open-Arm Time’ {[(open arm duration in test material-administered group−open arm duration in vehicle-administered group)/(open arm duration in vehicle administered group)]×100%}.

male ICR mouse [2] = assay: Acetic acid-induced writhing test in mouse; details: po, p.o, acetic acid i.p. 1 hour after dosing, writhing counted for 10 minutes, read-out: Writhing Test Suppression of pain response
Description: An acetic acid-induced writhing test is one of models for measuring an analgesic effect of drugs. A test material dissolved in a suitable vehicle was orally administered to a male ICR mouse weighing 30 to 35 g at an amount of 10 mg/kg. After 1 hour of the oral administration, […] of an aqueous 0.8% acetic acid solution was intraperitoneally injected into the male ICR mouse to induce the abdominal pain of the male ICR mouse. Right after the administration of acetic acid, the male ICR mouse was put into an empty cage, and the number of writhing behaviors of the mice was counted for 10 minutes. The term “writhing” represents a reflex action in which the mouse overtly extends its abdomen by stretching its hind legs due to the abdominal pain. The analgesic effect of the test material is represented by the ‘suppression of pain response’ {[(Writhing number of vehicle-administered group−Writhing number of Test material—administered group)/(Writhing number of Solvent-administered group)]×100%}.

male ICR mouse [3] = assay: Hot plate test in mouse; details: po, p.o, 1 hour after dosing, hot plate 55° C., read-out: Hot Plate Test Increase in latency of avoidance response
Description: A hot plate test is one of representative models for measuring an analgesic effect of drugs. A test material dissolved in a suitable vehicle was orally administered to a male ICR mouse weighing 25 to 30 g at an amount of 30 mg/kg. After 1 hour of the oral administration, the mouse was put on a hot plate (55° C.). A latency was recorded from the time right after a mouse is put on a hot plate to the time when avoidance responses (flinching, licking, jumping, etc.) to pain are observed from forefeet or rear legs of the mouse. The analgesic effect of the test material is represented by the ‘Increase in latency of avoidance response’ {[(Latency of avoidance response to pain of Test material-administered group−Latency of avoidance response to pain of vehicle-administered group)/(Latency of avoidance response to pain of Solvent-administered group)]×100%}.

male ICR mouse [4] = assay: Head twitch potentiation induced by 5-HTP (5-HTP potentiation test) in mouse; details: po, 0.5 h, p.o, 5-HTP 80 mg/kg + Carbidopa 25 mg/kg i.p. 30 minutes after dosing, head twitches counted for 2 minutes, negative = 5-HT2A antagonist, read-out: 5-HTP Potentiation Increase rate in Head Twitch No.
Description: When 5-hydroxy-L-tryptophan (5-HTP) is administered into a mouse, a head twitch phenomenon is observed since serotonin is increasingly secreted in the mouse. […] By using this principle, it is possible to search an effect of the representative antidepressant agent. A test material dissolved in a suitable vehicle was orally administered to a male ICR mouse weighing 20 to 25 g at an amount of 30 mg/kg. After 30 minutes of the oral administration, 5-HTP (80 mg/kg) and 5-HTP peripheral decarbozylase inhibitor ‘Carbidopa’ (25 mg/kg) were intraperitoneally administered to the mouse. After 30 minutes of the intraperitoneal administration, the mouse was put into an observation cage, and head twitches of the mouse were counted for 2 minutes. The anti-depression effect of the test material is represented by the ‘Increase rate in Head Twitch No.’ {[(Head Twitch No. of Test material-administered group−Head Twitch No. of vehicle-administered group)/(Head Twitch No. of vehicle-administered group)]×100%}. […] In addition to the selective serotonin reuptake inhibitor (SSRI) that has been widely used as an antidepressant agent in the clinical fields, it was tested that 5-HT2A antagonists such as nefazodone and trazodone also have an antidepressant effect.

Compound | change in vivo at 10 mg/kg (male ICR mouse [1]) [%] | inhibition in vivo at 10 mg/kg (male ICR mouse [2]) [%] | change in vivo at 30 mg/kg (male ICR mouse [3]) [%] | change in vivo at 30 mg/kg (male ICR mouse [4]) [%]
NC(=O)OC(CC(=O)N1CCN(c2cccc(Cl)c2Cl)CC1)c1ccccc1 (stereo not shown) [Example 12, carbamic acid 3-[4-(2,3-dichloro-phenyl)-piperazin-1-yl]-3-oxo-1-phenyl-propyl ester] | 41.1 | 37 | 46.8 | 10
NC(=O)OC(CC(=O)N1CCN(c2ccc(F)cc2F)CC1)c1ccccc1 (stereo not shown) [Example 13, carbamic acid 3-[4-(2,4-difluoro-phenyl)-piperazin-1-yl]-3-oxo-1-phenyl-propyl ester] | 12.6 | 64 | 21.4 | -60
NC(=O)OC(CC(=O)N1CCN(c2ccccc2)CC1)c1ccc(Cl)cc1 (stereo not shown) [Example 16, carbamic acid 1-(4-chloro-phenyl)-3-oxo-3-(4-phenyl-piperazin-1-yl)-propyl ester] | 1.3 | 37.3 | 19.5 | 140
CC(C)(C)c1ccc(N2CCN(C(=O)CC(OC(N)=O)c3ccccc3)CC2)cc1 (stereo not shown) [Example 17, carbamic acid 3-[4-(4-tert-butyl-phenyl)-piperazin-1-yl]-3-oxo-1-phenyl-propyl ester] | 34 | 25.3 | 29.4 | 10
NC(=O)OC(CC(=O)N1CCN(c2ccc(O)cc2)CC1)c1ccccc1 (stereo not shown) [Example 18, carbamic acid 3-[4-(4-hydroxy-phenyl)-piperazin-1-yl]-3-oxo-1-phenyl-propyl ester] | 16.1 | 30.6 | 26.4 | -23.4
COc1ccc(N2CCN(C(=O)CC(OC(=O)N(C)C)c3ccccc3)CC2)cc1 (stereo not shown) [Example 19, dimethyl-carbamic acid 3-[4-(4-methoxy-phenyl)-piperazin-1-yl]-3-oxo-1-phenyl-propyl ester] | 0 | 34.2 | 49.4 | 60
Cc1ccc(N2CCN(C(=O)CC(OC(N)=O)c3ccccc3)CC2)cc1C (stereo not shown) [Example 20, carbamic acid 3-[4-(3,4-dimethyl-phenyl)-piperazin-1-yl]-3-oxo-1-phenyl-propyl ester] | 45.4 | 14.6 | 45.4 | -6.3
NC(=O)OC(CC(=O)N1CCN(C(c2ccc(F)cc2)c2ccc(F)cc2)CC1)c1ccccc1 (stereo not shown) [Example 21, carbamic acid 3-{4-[bis-(4-fluoro-phenyl)-methyl]-piperazin-1-yl}-3-oxo-1-phenyl-propyl ester] | 67.5 | 32.5 | 51.4 | -7
NC(=O)OC(CC(=O)N1CCN(c2cnc3ccccc3n2)CC1)c1ccccc1 (stereo not shown) [Example 22, carbamic acid 3-oxo-1-phenyl-3-(4-quinoxalin-2-yl-piperazin-1-yl)-propyl ester] | -21.2 | 29.4 | 38 | 3.9
CC(=O)Oc1ccc(N2CCN(C(=O)CC(OC(N)=O)c3ccccc3)CC2)cc1 (stereo not shown) [Example 23, acetic acid 4-[4-(3-carbamoyloxy-3-phenyl-propionyl)-piperazin-1-yl]-phenyl ester] | -25.1 | 21.1 | 29.4 | 100
NC(=O)OC(CC(=O)N1CCN(c2ccc(Cl)c(C(F)(F)F)c2)CC1)c1ccccc1 (stereo not shown) [Example 27, carbamic acid 3-[4-(4-chloro-3-trifluoromethyl-phenyl)-piperazin-1-yl]-3-oxo-1-phenyl-propyl ester] | 66.7 | 29.1 | 41.2 | -78.1
NC(=O)OC(CC(=O)N1CCN(c2ccc(C(F)(F)F)cc2)CC1)c1ccccc1 (stereo not shown) [Example 28, carbamic acid 3-oxo-1-phenyl-3-[4-(4-trifluoromethyl-phenyl)-piperazin-1-yl]-propyl ester] | -1.4 | 55.6 | 3.1 | -12.5
NC(=O)OC(CC(=O)N1CCN(c2ccccc2F)CC1)c1ccccc1 (stereo not shown) [Example 29, carbamic acid 3-[4-(2-fluoro-phenyl)-piperazin-1-yl]-3-oxo-1-phenyl-propyl ester] | 92.3 | 34.5 | 0 | 14.3
NC(=O)OC(CC(=O)N1CCN(c2cccc(F)c2)CC1)c1ccccc1 (stereo not shown) [Example 30, carbamic acid 3-[4-(3-fluoro-phenyl)-piperazin-1-yl]-3-oxo-1-phenyl-propyl ester] | 102 | 9.2 | 27.1 | 40
NC(=O)OC(CC(=O)N1CCN(c2ccccc2)CC1)c1ccc(C(F)(F)F)cc1 (stereo not shown) [Example 31, carbamic acid 3-oxo-3-(4-phenyl-piperazin-1-yl)-1-(4-trifluoromethyl-phenyl)-propyl ester] | 35.6 | 21.6 | 20.1 | 10
Cc1ccc(C(CC(=O)N2CCN(c3ccccc3)CC2)OC(N)=O)cc1 (stereo not shown) [Example 32, carbamic acid 3-oxo-3-(4-phenyl-piperazin-1-yl)-1-p-tolyl-propyl ester] | 9.5 | 6 | 28.2 | -40
NC(=O)OC(CC(=O)N1CCN(c2ccccc2)CC1)c1ccc([N+](=O)[O-])cc1 (stereo not shown) [Example 34, carbamic acid 1-(4-nitro-phenyl)-3-oxo-3-(4-phenyl-piperazin-1-yl)-propyl ester] | 6.5 | 38.4 | 0.6 | 2.9
COc1ccc(N2CCN(C(=O)CC(OC(N)=O)c3ccc(C(F)(F)F)cc3)CC2)cc1OC (stereo not shown) [Example 35, carbamic acid 3-[4-(3,4-dimethoxy-phenyl)-piperazin-1-yl]-3-oxo-1-(4-trifluoromethyl-phenyl)-propyl ester; hydrochloride] | 44 | 33.8 | 32.8 | 64.3
COc1ccc(N2CCN(C(=O)CC(OC(N)=O)c3ccc([N+](=O)[O-])cc3)CC2)cc1OC (stereo not shown) [Example 36, carbamic acid 3-[4-(3,4-dimethoxy-phenyl)-piperazin-1-yl]-1-(4-nitro-phenyl)-3-oxo-propyl ester; hydrochloride] | 35.3 | 42 | 20.5 | 93.8

Reference: US8901116B2, “Method for treating pain, anxiety or depression using carbamoyloxy alkanoyl piperazine compound” (SK Biopharmaceuticals Co., Ltd., priority 2007, dated 2014)
